Data on 37 molecules can be found in patent publication EP4483954A1 (Masarykova Univerzita, priority 2023, dated 2025).

The test concerns the target T1, CDKL4(h) (Homo sapiens, UniProt Q5MAI5).
T1 construct: purchased Eurofins (KinaseProfiler)
Put plainly: radiometric kinase assay (KinaseProfiler, Eurofins), CDKL4. The test is classed as biochemical. Particulars: in vitro radiometric kinase assay, tested at 1 nM to 10 000 nM, no pre-incubation; read-out: inhibitory activities (IC50 values) CDKL4. On the procedure:
The compounds were profiled in the radiometric assays (KinaseProfiler, Eurofins).
Briefly, kinases were diluted in the buffer shown below prior to addition to the reaction mix: • CDKL3, TAF1L: 20 mM Tris/HCl pH 8.5, 0.2 mM EDTA, 0.1% β-mercaptoethanol, 0.01% Brij-35, 5% glycerol, 1 mg/ml BSA; • Haspin: 15 mM MOPS, 0.75 mM EDTA, 0.0075% Brij-35, 3.75% Glycerol, 150 mM NaCl, 0.1% β-mercaptoethanol, 1 mg/mLBSA; • CDKL4, CLK2, PIM1, TRB2: […], 1 mM EDTA, 0.01% Brij-35, 5% Glycerol, 0.1% β-mercaptoethanol, 1 mg/mL BSA.
All compounds were prepared to 50x final assay concentration in 100% DMSO. This working stock of the compound was added to the assay well as the first component in the reaction, followed by the remaining components as detailed in the general assay protocols below. There was no pre-incubation step between the compound and the kinase prior to initiation of the reaction.
CDKL4(h) was incubated with 8 mM MOPS pH 7.0, 0.2 mM EDTA, 250 µM RRRFRPASPLRGPPK (SEQ ID NO. 1), 10 mM magnesium acetate and γ-^33P-ATP (specific activity and concentration as required). The reaction was initiated by the addition of the Mg/ATP mix. After incubation for 120 minutes at room temperature, the reaction was stopped by the addition of phosphoric acid to a concentration of 0.5%. An aliquot of the stopped reaction was spotted onto a filter and washed four times for 4 minutes in 0.425% phosphoric acid and once in methanol prior to drying and scintillation counting.
Kinase activity data were expressed as the percent remaining kinase activity in tested samples compared to the vehicle (DMSO) reactions. The compounds were tested at the following concentrations: 1 nM, 3 nM, 10 nM, 30 nM, 100 nM, 300 nM, 1000 nM, 3000 nM, and 10 000 nM; IC50 values and curve fits were then obtained.

Each structure is given as a SMILES string.

T1 sequence (Q5MAI5 whole entry): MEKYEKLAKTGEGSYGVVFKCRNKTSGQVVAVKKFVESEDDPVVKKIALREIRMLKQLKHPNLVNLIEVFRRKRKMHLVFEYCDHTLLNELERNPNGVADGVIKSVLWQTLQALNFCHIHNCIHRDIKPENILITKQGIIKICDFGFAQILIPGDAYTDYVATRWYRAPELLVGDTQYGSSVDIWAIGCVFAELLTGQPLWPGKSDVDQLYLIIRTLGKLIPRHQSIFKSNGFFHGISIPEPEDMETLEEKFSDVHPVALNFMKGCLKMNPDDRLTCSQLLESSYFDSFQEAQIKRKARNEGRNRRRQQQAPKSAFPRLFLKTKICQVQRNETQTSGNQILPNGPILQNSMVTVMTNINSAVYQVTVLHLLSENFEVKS

Regarding `Cn1cc(-c2ccc3scc(-c4ccnc(C#N)c4)c3n2)cn1`, the IC50 was in the range of 100 to 499 nM.
In the case of `Cn1cc(-c2ccc3scc(-c4cnn(Cc5ccccc5)c4)c3n2)cn1` it was 100 to 499 nM.
Turning to `Cn1cc(-c2ccc3scc(-c4ccccc4)c3n2)cn1` [Preparative Example 2, 5-(1-methyl-1H-pyrazol-4-yl)-3-phenylthieno[3,2-b]pyridine], the IC50 fell in the range of 100 to 499 nM.
As for `Cn1cc(-c2ccc3scc(C4=CCNCC4)c3n2)cn1` [Preparative Example 9, 5-(1-methyl-1H-pyrazol-4-yl)-3-(1,2,3,6-tetrahydropyridin-4-yl)-thieno[3.2-b]pyridine], the IC50 lay in the range of 500 to 3000 nM.
Consider `Cn1cc(-c2ccc3scc(-c4cccnc4)c3n2)cn1` [Preparative Example 11, 5-(1-methyl-1H-pyrazol-4-yl)-3-(pyridin-3-yl)thieno[3,2-b]pyridine], for which the IC50 is 500 to 3000 nM.
The result for `Cn1cc(-c2ccc3scc(-c4ccncc4)c3n2)cn1` [Preparative Example 13, 5-(1-methyl-1H-pyrazol-4-yl)-3-(pyridin-4-yl)thieno[3,2-b]pyridine] reads 100 to 499 nM; that for `Cc1cc(-c2csc3ccc(-c4cnn(C)c4)nc23)ccn1` [Preparative Example 15, 5-(1-methyl-1H-pyrazol-4-yl)-3-(2-methylpyridin-4-yl)-thieno[3,2-b]pyridine], 100 to 499 nM.
Regarding `COc1cc(-c2csc3ccc(-c4cnn(C)c4)nc23)ccn1` [Preparative Example 17, 3-(2-methoxypyridin-4-yl)-5-(1-methyl-1H-pyrazol-4-yl)thieno[3.2-b]pyridine], the IC50 lay within 100 to 499 nM.
In the case of `Cn1cc(-c2ccc3scc(-c4ccnc(F)c4)c3n2)cn1` [Preparative Example 22, 3-(2-fluoropyridin-4-yl)-5-(1-methyl-1H-pyrazol-4-yl)thieno[3,2-b]pyridine] it was 100 to 499 nM; in that of `Cn1cc(-c2ccc3scc(-c4ccnc(CN)c4)c3n2)cn1` [Preparative Example 28, (4-(5-(1-methyl-1H-pyrazol-4-yl)thieno[3,2-b]pyridin-3-yl)pyridin-2-yl)methanamine], 500 to 3000 nM.
The result for `Cc1cc(-c2csc3ccc(-c4cnn(C)c4)nc23)cc(C)n1` [Preparative Example 30, 3-(2,6-dimethylpyridin-4-yl)-5-(1-methyl-1H-pyrazol-4-yl)thieno-[3,2-b]pyridine] reads 100 to 499 nM; that for `Cc1cnccc1-c1csc2ccc(-c3cnn(C)c3)nc12` [Preparative Example 32, 5-(1-methyl-1H-pyrazol-4-yl)-3-(3-methylpyridin-4-yl)thieno[3,2-b]pyridine], 500 to 3000 nM; that for `Cn1cc(-c2ccc3scc(-c4ccncc4C#N)c3n2)cn1` [Preparative Example 34, 4-(5-(1-methyl-1H-pyrazol-4-yl)thieno[3,2-b]pyridin-3-yl)nicotino-nitrile], 3000 to 10000 nM.
For `Cn1cc(-c2ccc3scc(-c4ccncc4F)c3n2)cn1` [Preparative Example 36, 3-(3-fluoropyridin-4-yl)-5-(1-methyl-1H-pyrazol-4-yl)thieno[3,2-b]pyridine], the IC50 lay in the range of 100 to 499 nM.
With `Cn1cc(-c2ccc3scc(-c4ccnnc4)c3n2)cn1` [Preparative Example 40, 5-(1-methyl-1H-pyrazol-4-yl)-3-(pyridazin-4-yl)thieno[3,2-b]-pyridine], the IC50 is 500 to 3000 nM.
For the molecule `Cn1cc(-c2ccc3scc(-c4ccc5ncnn5c4)c3n2)cn1` [Preparative Example 53, 3-([1,2,4]-triazolo[1,5-a]pyridin-6-yl)-5-(1-methyl-1H-pyrazol-4-yl)thieno[3,2-b]pyridine], the half-maximal inhibitory concentration (IC50) lay within 100 to 499 nM.
With `Cn1cc(-c2ccc3scc(-c4cnn(C)c4)c3n2)cn1` [Preparative Example 63, 3,5-bis(1-methyl-1H-pyrazol-4-yl)thieno[3,2-b]pyridine], the IC50 lay within 100 to 499 nM.
As to `Cn1cc(-c2ccc3scc(-c4ccns4)c3n2)cn1` [Preparative Example 67, 3-(isothiazol-5-yl)-5-(1-methyl-1H-pyrazol-4-yl)thieno[3,2-b]pyridine], the IC50 was 20 to 99 nM.
The result for `Cn1cc(-c2ccc3scc(-c4cncs4)c3n2)cn1` [Preparative Example 69, 5-(1-methyl-1H-pyrazol-4-yl)-3-(thiazol-5-yl)thieno[3,2-b]pyridine] reads 100 to 499 nM; that for `Cc1nsc(-c2csc3ccc(-c4cnn(C)c4)nc23)n1` [Preparative Example 71, 3-(3-methyl-1,2,4-thiadiazol-5-yl)-5-(1-methyl-1H-pyrazol-4-yl)thieno[3,2-b]pyridine], 100 to 499 nM; that for `Cn1cc(-c2ccc3scc(C(=O)c4ccccc4)c3n2)cn1` [Preparative Example 73, (5-(1-methyl-1H-pyrazol-4-yl)thieno[3,2-b]pyridin-3-yl)(phenyl)-methanone], 3000 to 10000 nM.
As to `Cn1cc(-c2ccc3scc(C(O)c4ccccc4)c3n2)cn1` (stereo not shown) [Preparative Example 74], the IC50 lay within 100 to 499 nM.
For `Cn1cc(-c2ccc3scc(Nc4ccccc4)c3n2)cn1` [Preparative Example 76, 5-(1-methyl-1H-pyrazol-4-yl)-N-phenylthieno[3,2-b]pyridin-3-amine], the IC50 fell in the range of 20 to 99 nM.
The result for `CCn1cc(-c2ccc3scc(-c4ccncc4)c3n2)cn1` [Preparative Example 77, 5-(1-ethyl-1H-pyrazol-4-yl)-3-(pyridin-4-yl)thieno[3,2-b]pyridine] reads 500 to 3000 nM.
The result for `FC(F)(F)n1cc(-c2ccc3scc(-c4ccncc4)c3n2)cn1` [Preparative Example 78, 3-(pyridin-4-yl)-5-(1-(trifluoromethyl)-1H-pyrazol-4-yl)thieno[3,2-b]pyridine] reads 500 to 3000 nM; that for `CC(C)n1cc(-c2ccc3scc(-c4ccncc4)c3n2)cn1` [Preparative Example 79, 5-(1-isopropyl-1H-pyrazol-4-yl)-3-(pyridin-4-yl)thieno[3,2-b]pyridine], 3000 to 10000 nM; that for `c1ccc(Cn2cc(-c3ccc4scc(-c5ccncc5)c4n3)cn2)cc1` [Preparative Example 81, 5-(1-benzyl-1H-pyrazol-4-yl)-3-(pyridin-4-yl)thieno[3,2-b]pyridine], 500 to 3000 nM.
Regarding `Cn1ncc(-c2ccc3scc(-c4ccncc4)c3n2)c1CC1CC1` [Preparative Example 82, 5-(5-(cyclopropylmethyl)-1-methyl-1H-pyrazol-4-yl)-3-(pyridin-4-yl)thieno[3,2-b]pyridine], the IC50 was in the range of 500 to 3000 nM.
Consider `Cn1cc(-c2ccc3scc(-c4ccncc4)c3n2)c(NC(=O)OC(C)(C)C)n1` [Preparative Example 83, tert-butyl(1-methyl-4-(3-(pyridin-4-yl)thieno[3,2-b]pyridin-5-yl)-1H-pyrazol-3-yl)carbamate], for which the IC50 is 500 to 3000 nM.
The result for `Cn1cc(-c2ccc3scc(-c4ccncc4)c3n2)c(N)n1` [Preparative Example 84, 1-methyl-4-(3-(pyridin-4-yl)thieno[3,2-b]pyridin-5-yl)-1H-pyrazol-3-amine] reads 500 to 3000 nM; that for `Cc1nn(C)c(C)c1-c1ccc2scc(-c3ccncc3)c2n1` [Preparative Example 85, 3-(pyridin-4-yl)-5-(1,3,5-trimethyl-1H-pyrazol-4-yl)thieno[3,2-b]pyridine], 500 to 3000 nM.
The result for `Cn1ccc(-c2ccc3scc(-c4ccncc4)c3n2)n1` [Preparative Example 86, 5-(1-methyl-1H-pyrazol-3-yl)-3-(pyridin-4-yl)thieno[3,2-b]pyridine] reads 3000 to 10000 nM; that for `Cn1nccc1-c1ccc2scc(-c3ccncc3)c2n1` [Preparative Example 90, 5-(1-methyl-1H-pyrazol-5-yl)-3-(pyridin-4-yl)thieno[3,2-b]pyridine], 500 to 3000 nM; that for `Cn1cncc1-c1ccc2scc(-c3ccncc3)c2n1` [Preparative Example 91, 5-(1-methyl-1H-imidazol-5-yl)-3-(pyridin-4-yl)thieno[3,2-b]pyridine], 500 to 3000 nM.
With `Cn1cc(-c2ccc3scc(-c4ccncc4)c3n2)nn1` [Preparative Example 93, 5-(1-methyl-1H-1,2,3-triazol-4-yl)-3-(pyridin-4-yl)thieno[3,2-b]pyridine], the IC50 was in the range of 3000 to 10000 nM.
For the molecule `Cn1ncc(-c2ccc3scc(-c4ccncc4)c3n2)n1` [Preparative Example 94, 5-(2-methyl-2H-1,2,3-triazol-4-yl)-3-(pyridin-4-yl)thieno[3,2-b]pyridine], the IC50 lay in the range of 500 to 3000 nM.
Turning to `Cn1ccc(Nc2ccc3scc(-c4ccncc4)c3n2)n1` [Preparative Example 99, N-(1-methyl-1H-pyrazol-3-yl)-3-(pyridin-4-yl)thieno[3,2-b]pyridin-5-amine], the IC50 fell in the range of 500 to 3000 nM.

The IC50 is the midpoint of a concentration-inhibition curve.
